The subject of this assay is MDCK cells. The class given is cell-based, canine. The settings on record: for EC50: MDCK monolayers, modified Hill equation fit, read-out: half maximal effect on Isc (EC50 / K1/2).
Excerpt: Cell culture: MDCK cells were a generous gift of Dr. Lawrence Sullivan (Kansas University Medical Center, Kansas City, Kans.). T84 cells were obtained from Dr. Daniel Devor (University of Pittsburgh, Pittsburgh, Pa.). MDCK and T84 cells were maintained with similar culture procedures. The culture medium was a 1:1 mixture of DMEM and Ham's F-12 (Gibco BRL, Grand Island, N.Y.) supplemented with 5% heat inactivated fetal bovine serum (BioWhittaker, Walkersville, Md.), and 1% penicillin and streptomycin (Gibco BRL). Cells were grown in plastic culture flasks in a humidified environment with 5% CO2 at 37° C. and passaged every 5-7 days. For Ussing chamber experiments, cells were plated on 1.13 cm^2 permeable supports (Snapwell™, Costar®, Cambridge, Mass.) at a density of approximately 1×10^6 cells/well and incubated in DMEM/F-12 supplemented with FBS and antibiotics (changed every other day) for 2-3 weeks prior to being mounted in modified Ussing flux chambers.
To form monolayers, the cells were plated onto the upper surface of a permeable membrane that forms the bottom of a plastic well. Two types were used. One was the Transwell™ insert (Costar®, Cambridge, Mass.) supported in a six-well tissue culture plate and the other type was the Snapwell™ (Costar®, Cambridge, Mass.). During incubation, the medium was replaced at 48-72 hour intervals. Confluent monolayers formed within 72 hours. Experiments were performed on the monolayers 6-9 days after the initial plating. Net fluid secretion responses were optimal after six days.
Solutions: Ringer solution was made fresh daily. The final concentration (in mM) was 120 NaCl, 25 NaHCO3 3.3 KH2HPO4, 0.8 K2HPO4, 1.2 MgCl2, 1.2 CaCl2, (290±2 mOsmol). All components of the Ringer solution were from Sigma (St. Louis, Mo.).
(§1) Epithelial electrical measurements: Transepithelial ion transport was evaluated in a modified Ussing chamber (Model DCV9, Navicyte, San Diego, Calif.). The Ussing chamber's fluid resistance compensation was completed in Ringer solution (see below). For electrical measurements cell monolayers were bathed in Ringer solution maintained at 37° C. and continuously bubbled with 5% CO2:95% O2. The transepithelial membrane potential (Vte) was clamped to zero and the transepithelial short circuit current (Isc), an indicator of net ion transport, was measured continuously with a voltage clamp apparatus (Model 558C, University of Iowa, Department of Bioengineering, Iowa City, Iowa). Data were digitally acquired at 1 Hz with a Macintosh computer (Apple Computer, Cuppertino, Calif.) using Aqknowledge software (ver. 3.2.6, BIOPAC Systems, Santa Barbara, Calif.) with an MP100A-CE interface.
as §1, with “Transepithelial” for “Epithelial electrical measurements: Transepithelial”, “(composition (in mM) was 120 NaCl, 25 NaHCO3 3.3 KH2HPO4, 0.8 K2HPO4, 1.2 MgCl2, 1.2 CaCl2).” for “(see below).”
MDCK cell monolayers (in the presence of 1-EBIO to maximize basolateral membrane K^+ conductance) were exposed on the apical aspect to escelating peptide concentrations. Maximal change in Isc (relative to the Isc prior to peptide exposure) was recorded following each increment in apical peptide concentration. […]

Where “and” joins values, the source holds several entries; their conditions need not be identical. Equal entries are not always repeated. Where two headings read alike, the source gives them in different places. Non-standard residues stand in square brackets, D forms with d. No end group written: not given here. DAP = diaminopimelic acid

As for “KKKKPARVGL GITTVLTRTT QS (KKKKPARVGLGITTVLTRTTQS; Modified Homo sapiens) [SEQ ID No. 15]”, the “Activity profile in MDCK cells” value (peptide at 500 μM) was less than 1.0 at 500 μM μA/cm2.
On the same count and under the same terms, for “KKKKPARVGL GITTVLTRTT (DAP)S (KKKKPARVGLGITTVLTRTT[DAP]S) [SEQ ID No. 32]” the value was 24.0 at 500 μM μA/cm2.
For “KKKKPARVGL GITTVLTMTT QR (KKKKPARVGLGITTVLTMTTQR; Modified Homo sapiens) [SEQ ID No. 14]”, under “peptide at 500 μM”, the “Activity profile in MDCK cells” value turned out to be 20.0 at 500 μM μA/cm2.
With “ARSGSSQTTM TLVTTIGLGV RAPKKKK (ARSGSSQTTMTLVTTIGLGVRAPKKKK; Modified Homo sapiens) [SEQ ID No. 17]”, where the note is “peptide at 500 μM”, the “Activity profile in MDCK cells” value was determined as 3.6 at 500 μM μA/cm2.
As for `CCn1c(=O)[nH]c2ccccc21` [1-EBIO, reference compound], under “MDCK pretreatment, basal conditions”, the “effect on ISC or gTE” value is on record as “no effect”.
Take “VTTIGLGVRA P (VTTIGLGVRAP; Modified Homo sapiens) [SEQ ID No. 50]”: the “Activity profile in MDCK cells” value (peptide at 500 μM) was less than 1.0 at 500 μM μA/cm2.
“KKKKPARVGL GITTVLPARV GLGITTV (KKKKPARVGLGITTVLPARVGLGITTV; Modified Homo sapiens) [SEQ ID No. 20]”: where the note is “peptide at 500 μM”, the “Activity profile in MDCK cells” value is on record as less than 1.0 at 500 μM μA/cm2.
Turning to “AARVGLGITT V (AARVGLGITTV; Modified Homo sapiens) [SEQ ID No. 52]”, the “Activity profile in MDCK cells” value (peptide at 500 μM) is reported as less than 1.0 at 500 μM μA/cm2.
With “KKKKVTTIGL GVRAPLARSG SSQTTMT [SEQ ID No. 8]”, the “Activity profile in MDCK cells” value (peptide at 500 μM) is reported as less than 1.0 at 500 μM μA/cm2.
As to “KKKKPARVGL GITTVLTMTT (KKKKPARVGLGITTVLTMTT; Modified Homo sapiens) [SEQ ID No. 36]”, the “Activity profile in MDCK cells” value (peptide at 500 μM) turned out to be 8.8 at 500 μM μA/cm2.
For “VTTIGLGVRA A (VTTIGLGVRAA; Modified Homo sapiens) [SEQ ID No. 53]”, the “Activity profile in MDCK cells” value (peptide at 500 μM) is less than 1.0 at 500 μM μA/cm2.
As to “KKKKAARVGL GITTVVTTIG LGVRAA (KKKKAARVGLGITTVVTTIGLGVRAA; Modified Homo sapiens) [SEQ ID No. 28]”, the “Activity profile in MDCK cells” value (peptide at 100 μM) worked out at 17.3 at 100 μM μA/cm2.
For the molecule “LGITTVLTMT TQSSGSRAKK KK (LGITTVLTMTTQSSGSRAKKKK; Modified Homo sapiens) [SEQ ID No. 43]”, the “Activity profile in MDCK cells” value (peptide at 500 μM) is on record as less than 1.0 at 500 μM μA/cm2.
As to “KKKKPARVGL GITTVLTMT (KKKKPARVGLGITTVLTMT; Modified Homo sapiens) [SEQ ID No. 37]”, the “Activity profile in MDCK cells” value (peptide at 500 μM) is 8.7 at 500 μM μA/cm2.
Turning to “KKKKPARVGLGITTVLTMTTQSSGSRAKKKK (KKKKPARVGLGITTVLTMTTQSSGSRAKKKK; Modified Homo sapiens) [SEQ ID No. 47]”, the “Activity profile in MDCK cells” value (peptide at 500 μM) was 5.0 at 500 μM μA/cm2.
“ITTVLTMTTQ SSGSRAKKKK (ITTVLTMTTQSSGSRAKKKK; Modified Homo sapiens) [SEQ ID No. 45]”: the “Activity profile in MDCK cells” value (peptide at 500 μM) is on record as less than 1.0 at 500 μM μA/cm2.
“KKKKAARVGLGITTVLVTTIGLGVRAA [SEQ ID No. 27, KKKKAARVGL GITTVLVTTI GLGVRAA]”: the EC50 stood at 40 µM. For the same molecule, the EC50 (listed as SEQ ID NO. 27) is 50 µM and ~40 µM.
For “KKKKPARVGL GITTVLT (KKKKPARVGLGITTVLT; Modified Homo sapiens) [SEQ ID No. 39]”, the “Activity profile in MDCK cells” value (peptide at 500 μM) came to 1.8 at 500 μM μA/cm2.
“GLGITTVLTM TTQSSGSRAK KKK (GLGITTVLTMTTQSSGSRAKKKK; Modified Homo sapiens) [SEQ ID No. 42]”: under “peptide at 500 μM”, the “Activity profile in MDCK cells” value stood at 3.3 at 500 μM μA/cm2.
The same measure, in the same setting: for “KKKKPARVGL GITTVLTMTT RS (KKKKPARVGLGITTVLTMTTRS; Modified Homo sapiens) [SEQ ID No. 13]” the value was 24.0 at 500 μM μA/cm2; for “KKKKPARVGL GITTVL (KKKKPARVGLGITTVL; Modified Homo sapiens) [SEQ ID No. 40]”, 1.5 at 500 μM μA/cm2.
As to “TMTTQSSGSR A (TMTTQSSGSRA; Modified Homo sapiens) [SEQ ID No. 49]”, the “Activity profile in MDCK cells” value (peptide at 500 μM) is recorded as less than 1.0 at 500 μM μA/cm2.
Turning to “KKKKPARVGL GITTVLAARV GLGITTV (KKKKPARVGLGITTVLAARVGLGITTV; Modified Homo sapiens) [SEQ ID No. 21]”, the “Activity profile in MDCK cells” value (peptide at 250 μM) was 8.0 at 250 μM μA/cm2.
Regarding “LTMTTQSSGS RAKKKK (LTMTTQSSGSRAKKKK; Modified Homo sapiens) [SEQ ID No. 46]”, under “peptide at 500 μM”, the “Activity profile in MDCK cells” value was less than 1.0 at 500 μM μA/cm2.
Turning to “KKKKARSGSS QTTMTLARSG SSQTTMT (KKKKARSGSSQTTMTLARSGSSQTTMT; Modified Homo sapiens) [SEQ ID No. 25]”, the “Activity profile in MDCK cells” value (peptide at 500 μM) is given as less than 1.0 at 500 μM μA/cm2.
As to “KKKKPARVGL GITTVLTM (KKKKPARVGLGITTVLTM; Modified Homo sapiens) [SEQ ID No. 38]”, the “Activity profile in MDCK cells” value (peptide at 500 μM) is recorded as 6.8 at 500 μM μA/cm2.
Take “ARSGSSQTTM T (ARSGSSQTTMT; Modified Homo sapiens) [SEQ ID No. 51]”: the “Activity profile in MDCK cells” value (peptide at 500 μM) is less than 1.0 at 500 μM μA/cm2.
For the molecule “KKKKTMTTQS SGSRALVTTI GLGVRAA (KKKKTMTTQSSGSRALVTTIGLGVRAA; Modified Homo sapiens) [SEQ ID No. 7]”, the “Activity profile in MDCK cells” value (peptide at 500 μM) was less than 1.0 at 500 μM μA/cm2.
Same read-out and setting: the same measure for “PARVGLGITT V (PARVGLGITTV; Modified Homo sapiens) [SEQ ID No. 48]”: less than 1.0 at 500 μM μA/cm2.
Take “KKKKARSGSS QTTMTLTMTT QSSGSRA (KKKKARSGSSQTTMTLTMTTQSSGSRA; Modified Homo sapiens) [SEQ ID No. 23]”: the “Activity profile in MDCK cells” value (peptide at 500 μM) is 4.2 at 500 μM μA/cm2.
With “KKKKVTTIGL GVRAPLPARV GLGITTV (KKKKVTTIGLGVRAPLPARVGLGITTV; Modified Homo sapiens) [SEQ ID No. 22]”, the “Activity profile in MDCK cells” value (peptide at 500 μM) is less than 1.0 at 500 μM μA/cm2.
As for “KKKKPARVGL GITTVWTMTT QSSGSRA (KKKKPARVGLGITTVWTMTTQSSGSRA; Modified Homo sapiens) [SEQ ID No. 10]”, the “Activity profile in MDCK cells” value (peptide at 500 μM) is on record as 20.0 at 500 μM μA/cm2.
On to “RVGLGITTVL TMTTQSSGSR AKKKK (RVGLGITTVLTMTTQSSGSRAKKKK; Modified Homo sapiens) [SEQ ID No. 41]”, for which the “Activity profile in MDCK cells” value (peptide at 500 μM) amounted to 6.3 at 500 μM μA/cm2.
Take “KKKKTMTTQS SGSRALTMTT QSSGSRA (KKKKTMTTQSSGSRALTMTTQSSGSRA; Modified Homo sapiens) [SEQ ID No. 6]”: the “Activity profile in MDCK cells” value (peptide at 500 μM) is recorded as less than 1.0 at 500 μM μA/cm2.
On the same count and under the same terms, the same measure for “KKKKPARVGL GITTVLTMTT Q (KKKKPARVGLGITTVLTMTTQ; Modified Homo sapiens) [SEQ ID No. 35]”: 13.1 at 500 μM μA/cm2.
“KKKKARSGSS QTTMTLVTTI GLGVRAA (KKKKARSGSSQTTMTLVTTIGLGVRAA; Modified Homo sapiens) [SEQ ID No. 4]”: where the note is “peptide at 300 μM”, the “Activity profile in MDCK cells” value is recorded as 18.7 at 300 μM μA/cm2.
For “KKKKTMTTQS SGSRALARSG SSQTTMT (KKKKTMTTQSSGSRALARSGSSQTTMT; Modified Homo sapiens) [SEQ ID No. 24]”, the “Activity profile in MDCK cells” value (peptide at 500 μM) is recorded as less than 1.0 at 500 μM μA/cm2.
As to “KKKKPARVGL GITTVLTMTT QS (KKKKPARVGLGITTVLTMTTQS; Modified Homo sapiens) [SEQ ID No. 34]”, the “Activity profile in MDCK cells” value (peptide at 500 μM) is 20.3 at 500 μM μA/cm2.
Still for that read-out and setting: for “GITTVLTMTT QSSGSRAKKK K (GITTVLTMTTQSSGSRAKKKK; Modified Homo sapiens) [SEQ ID No. 44]” the value was less than 1.0 at 500 μM μA/cm2.

The record behind these values is patent US8163870B2, “Channel forming peptides” (Kansas State University Research Foundation, priority 2000, dated 2012).
